This note sets out measurements from patent US8673306B2, “Compositions and methods of use for antibodies of dickkopf-1” (Novartis AG, priority 2006, dated 2014).

In one test the test system is C3H10T1/2 (10T1/2) cells. Briefly: Wnt-mediated osteoblast differentiation / alkaline phosphatase secretion of C3H10T1/2 cells. In kind it is cell-based, mouse. The note with it: Wnt3A conditioned medium. The text has this:
Upon osteoblast differentiation the 10T1/2 cells secrete alkaline phosphatase (AP), a phenomena which can be inhibited by DKK1.

In another test the test system is PC3M2AC6 xenografts. Put plainly: Intratibial growth of PC3M2AC6 xenografts in mice. The note with it: i.v., 3 times a week for 2 weeks. In kind it is in vivo, mouse. The protocol: An osteolytic prostate tumor model is adapted from a method by [Kim 2003]. A variant of the osteolytic prostate tumor cell line (PC3M) that stably expresses luciferase (PC3M2AC6) is injected into the tibia of mice. The growth of the tumor is monitored by luciferase while changes in bone are monitored by micro-computerized tomography (micro-CT) and histology.
Control IgG is administered i.v., at 200 μg/mouse/day, q.d., 3 times a week for 2 weeks. Vehicle control (PBS) is administered i.v., q.d., 3 times a week for 2 weeks. Final efficacy data and body weight change are calculated after treatment.

In test [1] the test system is N-linked deglycosylated rhDKK1. Put plainly: ELISA binding to N-linked deglycosylated rhDKK1. Conditions: PNGase F treated rhDKK1, relative to WT. More on the design: species or system human. On the technique in general: ELISA stands for enzyme-linked immunosorbent assay.
In test [2] the target is T1, rhDKK1 (recombinant human DKK1) (Homo sapiens, UniProt O94907).
T1 construct: host or cells: HEK / HEK293
T1 sequence (O94907 32-266): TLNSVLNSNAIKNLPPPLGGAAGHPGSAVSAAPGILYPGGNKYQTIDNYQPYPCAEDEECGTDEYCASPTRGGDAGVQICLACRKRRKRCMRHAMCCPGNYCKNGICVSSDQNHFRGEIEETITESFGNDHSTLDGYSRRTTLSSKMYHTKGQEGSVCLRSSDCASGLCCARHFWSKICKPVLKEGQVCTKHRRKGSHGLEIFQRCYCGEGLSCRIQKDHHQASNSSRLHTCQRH
Put plainly: Biacore T100 SPR of captured antibody with rhDKK1. In kind it is binding. Conditions: WT DKK1. As for the experimental part: FIG. 6. METHODS: The binding affinity and kinetics of lead candidates and rhDKK1 (recombinant human DKK1) (Batch BTP7757) are measured using surface plasmon resonance with a Biacore T100 (Biacore, Uppsala, Sweden) instrument containing a CM5 (S) sensor chip (Cat#BR-1006-68). Anti-Human IgG1 Fc (Jackson Immuno Research, Cat#109-006-098) is immobilized onto each flow cell, followed by capture of a lead candidate at an expected capture of about 100 RU. Finally, six concentrations of DKK1 (range 0.195-6.25 nM), with one repeat concentration, is run over the chip. Flow cells are activated for binding of DKK1 for 240 seconds, and disassociation is followed for 30 minutes. The normalized data (background subtracted) are fit to a 1:1 binding with mass transport model using Kinetics analysis in BIA evaluation 1.0 software. This experiment is carried out in triplicate, and data presented are the average of these three experiments with standard deviation.
On the technique in general: Surface plasmon resonance follows binding to a sensor surface in real time, without labels.

Test [3] has as its system subcutaneous PC3M2AC6 xenografts. Briefly: Subcutaneous PC3M2AC6 xenografts in mice. The note with it: mouse, in vivo, sc.
The next test addresses DKK3 (Homo sapiens, UniProt Q9UBP4). Put plainly: Biacore T100 binding to human DKK3.
Test [4] concerns the target T2, DKK1/LRP6 binding on cell surface (Homo sapiens, UniProt O94907).
T2 construct: made in house; LRP6 and MESD transiently transfected into HEK293T
T2 sequence (O94907 32-266): T1 sequence (O94907 32-266)
Briefly: DKK1-GFP binding to LRP6 on HEK293T cell surface, fluorescence microscopy. It counts as cell-based. Conditions: HEK293T transfected with LRP6 and MESD. As for the experimental part: However, upon co-transfection of LRP6 with a surface trafficking chaperone protein, MESD, GFP-tagged DKK1 can be detected on the cell surface, illustrating the specific nature of the DKK1/LRP6 interaction.
The ability of MOR04910 to inhibit DKK1/LRP6 binding on cell surface is measured by fluorescence microscopy. HEK293T cells are either mock transfected and transiently transfected with plasmids encoding LRP6 and MESD. Cells are incubated with DKK1-GFP conditioned medium together with anti-lysozyme FAb or anti-DKK1 FAb MOR04910 for 1 hour at 37° C., and examined by fluorescence microscopy. GFP fluorescence reflects DKK1-GFP binding to overexpressed LRP6 on the plasma membrane.

In another test the target is T3, DKK2 (Homo sapiens, UniProt Q9UBU2).
T3 sequence (Q9UBU2 34-259): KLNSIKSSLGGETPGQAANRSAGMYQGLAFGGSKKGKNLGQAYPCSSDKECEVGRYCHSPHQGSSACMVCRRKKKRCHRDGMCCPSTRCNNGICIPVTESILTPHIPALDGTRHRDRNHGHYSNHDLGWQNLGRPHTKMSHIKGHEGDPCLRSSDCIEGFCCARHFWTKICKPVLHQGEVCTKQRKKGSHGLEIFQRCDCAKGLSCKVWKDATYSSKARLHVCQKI
Briefly: Binding to human DKK2 (preliminary immunoprecipitation). The text has this:
Of note, neither DKK2 nor DKK4 conserve the Asparagine residue that is predicted to be targeted for glycosylation in the Cys-2 domain of DKK1.

For the next test, the system named is tumor cell lines. Briefly: Survival and proliferation of cancer cell lines (Cell Titer Glo). It counts as cell-based. Conditions: 100 μg/ml, three days, three serum concentrations. As for the experimental part: This assay is carried out in three different serum concentrations (serum free, minimal growth, and complete growth). […] Cell line supernants are analyzed for DKK1 expression by ELISA.
On the technique in general: In ATP-based viability assays light output follows the ATP content of the culture.

The next test deals with DKK1 (N-degly). Put plainly: Biacore T100 SPR with N-DEGLY DKK1. It counts as binding, human.
Test [5] concerns tumor and sham implanted tibias. Briefly: Bone effects in tumor-induced osteolytic model (micro-CT, histology). It counts as in vivo, mouse. The protocol: An osteolytic prostate tumor model is adapted from a method by [Kim 2003]. A variant of the osteolytic prostate tumor cell line (PC3M) that stably expresses luciferase (PC3M2AC6) is injected into the tibia of mice. The growth of the tumor is monitored by luciferase while changes in bone are monitored by micro-computerized tomography (micro-CT) and histology. […] Cortical damage is scored from 0=no damage to 3=severe damage. FIG. 12B. Cortical damage in tumor-implanted tibias is manually scored by microCT analysis that are blinded with respect to the study groups. No cortical damage is observed in any of the sham implanted legs. Methods: Female nude mice at age of 12 weeks old are implanted intatibially with 2×10^5 PC-3M2AC6 cells in the left tibia and sham-injection in the right tibia. Treatments started on day 5 post implantation. […] Vehicle (PBS) control is also administered q.d., 3 times a week for 2 weeks. Animals are scanned at day 7, 14, and 18 post tumor implantation using the μ-CT VivaCT40 Scanner (SCANCO, Switzerland). Trabecular bone density (BV/TV) is analyzed as described in methods. An asterisks (*) indicates statistical significant difference from both vehicle and IgG controls (n=12) at the same time point at p<0.05. In FIG. 13, to determine the bone mass, the secondary spongiosa of the tibia is imaged with the Zeiss Imager Z.1 and Axiovision software based on Giemsa stain. The readout is based on the percent calcified bone in the entire field. Every column represents the mean and standard deviation of the stated number of animals. In the PBS, IgG, and anti-DKK1/4 antibody treated groups, only animals with tumor are analyzed. […] Statistic: Dunnett Multiple Comparisons Test One-Way ANOVA. Left legs or right legs compared to the respective leg in the PBS group p<0.05*, p<0.01**, p>0.05 n.s. […] Trabecular bone density (BV/TV) is analyzed as described in methods. * indicates statistical significant difference from all controls including, vehicle, IgG, drill only, and naïve animals at the same time point at p<0.05.

“Also recorded” adds a separate entry of the source.

Chain of DKK3 (Q9UBP4 22-350): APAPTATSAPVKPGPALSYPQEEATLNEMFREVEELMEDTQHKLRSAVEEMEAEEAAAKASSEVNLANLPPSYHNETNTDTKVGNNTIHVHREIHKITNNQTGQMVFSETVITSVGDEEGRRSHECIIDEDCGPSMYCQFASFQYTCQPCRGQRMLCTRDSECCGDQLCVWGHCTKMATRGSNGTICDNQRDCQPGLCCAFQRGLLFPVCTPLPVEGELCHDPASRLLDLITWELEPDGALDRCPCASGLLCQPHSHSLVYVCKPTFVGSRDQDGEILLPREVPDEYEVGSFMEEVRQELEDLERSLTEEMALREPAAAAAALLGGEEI

On to “anti-DKK1/4 antibody: neutralizing anti-DKK1/4 antibody sharing the same variable regions as MOR04910 (4910 chains SEQ ID NO: 111/115, BHQ880)”, for which the “reversal of DKK1 inhibited alkaline phosphatase secretion” value in the test on C3H10T1/2 (10T1/2) cells is reported as “blocks DKK1 suppression of 10T1/2 differentiation”. The “effect on intratibial tumor growth” value in the test with PC3M2AC6 xenografts is reported as “trended toward inhibition of tumor growth”. The “Percent Binding, DKK1 (dyglycosylated)” value in test [1] is 12-18%. Also, in [2], the “Ka” value stood at 7.449e+06 M⁻¹ s⁻¹ and the “Kd” value was 2.319e-05 s⁻¹. In addition, the “effect on subcutaneous xenograft growth” value in test [3] is “non-significant trend toward inhibition”. In addition, the “binding to DKK3” value with DKK3 is “does not bind DKK3”. Also, the “inhibition of DKK1/LRP6 binding on cell surface” value in [4] is on record as “blocks DKK1 interactions with LRP6 on cell surfaces”. The “binding to DKK2” value in the test with DKK2 is on record as “does not specifically bind DKK2; also recorded: no significant binding to DKK2”. In addition, in the test with tumor cell lines, the “effect on survival and proliferation of cancer cell lines” value was “No significant changes”. Also, in the test on DKK1 (N-degly), the “Ka” value was determined as 1.424e+06 M⁻¹ s⁻¹ and the “Kd” value turned out to be 0.0003071 s⁻¹. For the same substance, in test [5] (mouse, in vivo), the “anti-osteolytic activity compared with Zometa” value is “equivalent anti-osteolytic activity as Zometa” and the “tumor-induced cortical bone damage” value is on record as “inhibits tumor-induced cortical bone damage”. Besides, the “production of bone / bone volume” value in test [5] (tumor and sham implanted tibias) was “increases the production of bone in both tumor and sham implanted tibias”.
